Results from patent US8722052B2, “Vaccinia virus protein A46 peptide and use thereof” (priority 2008, dated 2014).

Legend:
IκBα = assay: LPS-induced IκBα degradation in RAW264.7 cells, immunoblot; type: cell-based, murine; details: peptide 4 μM 1 h before 10 ng/ml LPS for 5, 15, 30 or 60 min
Method: FIGS. 25A and B are immunoblots showing the effect of A464 on LPS-induced IκBα degradation in murine RAW264.7 cells. Cells were seeded in 6-well plates at 1.5×10^5 cells/ml 24 hours prior to treatment with peptides. […] Cells were stimulated with 10 ng/ml LPS for a period of 5, 15, 30 or 60 min and then harvested on ice and lysed in 1% NP-40 containing lysis buffer. Lysates then were denatured using 5× sample buffer with DTT and resolved by SDS-PAGE. The proteins were transferred to PVDF membrane and the membrane was immunoblotted for IκBα (A). Equal protein loading was confirmed by re-probing the blot for β-actin (B). The blots shown are representative of two experiments;
RAW264.7 cells were seeded at a density of 1×10^5 cells/ml in 6 well plates. […] The protein concentration was determined by monitoring the change in the solution absorbance at 280 nm using a spectrophotometer compared to protein standards. […] Thereafter, the membranes were washed, incubated in appropriate secondary antibody and then developed using standard enhanced chemi-luminescence (ECL) reagents.
To further assay activation of NFκB, the degradation of its inhibitor IκBα, an event required for the translocation of the NFκB into the nucleus, was measured. […]

THP-1 cells = assay: MTT cell viability assay, THP-1; type: cell-based, human; details: peptide 5 and 10 μM, 10 ng/ml LPS
Method: FIGS. 7A and B are bar charts showing the effect of A464 on TNFα production and cell viability of human THP-1 cells stimulated with LPS. Cells were seeded in 96 well plates (3×10^5 cells/ml) and differentiated with 200 nM PMA for 24 hours before treatment. A464 (SEQ ID NO. 20) was added to the cells at a concentration of 5 or 10 μM 1 hour before stimulating with 10 ng/ml LPS. Supernatants were collected 6 hours after stimulation and assayed for TNFα by ELISA (A) and cells were assayed for viability by the MTT assay (B.). No peptides were added to the control wells (black bars). Data is representative of at least three experiments each performed in triplicate and is expressed as mean±s.d;
FIGS. 9A and B are bar charts showing the effect of A464 on Pam3CysK4-induced TNFα in human THP-1 cells. Cells were seeded in 96 well plates (3×10^5 cells/ml) and differentiated with 200 nM PMA for 24 hours before treatment. […] Data is representative of at least three experiments each performed in triplicate and is expressed as mean±s.d;
Cell viability was measured by assessing mitochondrial function using an MTT (3-(4,5-Dimethylthiazol-2-yl)-2,5-diphenyltetrazolium bromide) assay. […] MTT was then removed and 200 μl per well of dimethyl sulphoxide (DMSO) was added and cells incubated for 20 min at 37° C. in the dark, prior to absorbance being read at 595 nm on a spectrophotometer.

## KYSFKLILAEYRRRRRRRRR [Peptide A464]
IκBα
  effect on LPS-induced IκBα degradation: blocked the degradation of IκBα seen at 15 and 30 min
THP-1 cells
  cytotoxicity (MTT): no cytotoxicity
